± gives the expanded uncertainty stated by the source.
Assay: molar heat capacity at constant pressure
Conditions: 101.33 kPa, Vacuum adiabatic calorimetry

CCCCn1cc[n+](C)c1.[I-] [1-butyl-3-methylimidazolium iodide]
molar heat capacity at constant pressure [J/K/mol]
Conditions | Crystal | Glass
79.03 K | – | 108.5 ± 0.5
80 K | 101 ± 0.4 | 109.4 ± 0.4
80.72 K | – | 110.2 ± 0.5
80.99 K | 102 ± 0.4 | –
81.32 K | 102.2 ± 0.4 | –
81.39 K | – | 110.6 ± 0.5
82.53 K | – | 111.7 ± 0.5
82.87 K | 103.5 ± 0.5 | –
83.68 K | 104.1 ± 0.5 | –
83.75 K | – | 112.7 ± 0.5
84.35 K | – | 113.3 ± 0.5
84.75 K | 105 ± 0.5 | –
86.18 K | – | 114.8 ± 0.5
86.65 K | 106.5 ± 0.5 | –
88.03 K | – | 116.3 ± 0.5
88.56 K | 108 ± 0.5 | –
89.88 K | – | 117.8 ± 0.5
90 K | 109.2 ± 0.5 | 117.9 ± 0.6
90.48 K | 109.5 ± 0.5 | –
91.74 K | – | 119.3 ± 0.5
92.41 K | 110.9 ± 0.5 | –
93.62 K | – | 120.8 ± 0.5
94.34 K | 112.5 ± 0.5 | –
95.5 K | – | 122.3 ± 0.5
96.29 K | 113.9 ± 0.5 | –
97.39 K | – | 123.7 ± 0.5
98.25 K | 115.3 ± 0.5 | –
99.29 K | – | 125.2 ± 0.6
100 K | 116.6 ± 0.6 | 125.7 ± 0.6
100.21 K | 116.7 ± 0.5 | –
101.2 K | – | 126.6 ± 0.6
102.18 K | 118.2 ± 0.5 | –
103.12 K | – | 128 ± 0.6
104.16 K | 119.5 ± 0.5 | –
105.04 K | – | 129.4 ± 0.6
106.14 K | 120.9 ± 0.5 | –
106.97 K | – | 130.8 ± 0.6
107.31 K | 121.7 ± 0.5 | –
108.13 K | 122.3 ± 0.5 | –
108.91 K | – | 132.2 ± 0.6
109.45 K | 123.1 ± 0.5 | –
110 K | 123.5 ± 0.6 | 132.9 ± 0.6
110.13 K | 123.6 ± 0.5 | –
110.85 K | – | 133.5 ± 0.6
111.45 K | 124.4 ± 0.6 | –
112.13 K | 124.9 ± 0.6 | –
112.8 K | – | 134.9 ± 0.6
113.46 K | 125.7 ± 0.6 | –
114.14 K | 126.3 ± 0.6 | –
114.75 K | – | 136.2 ± 0.6
115.47 K | 127.1 ± 0.6 | –
116.16 K | 127.5 ± 0.6 | –
116.71 K | – | 137.6 ± 0.6
117.49 K | 128.4 ± 0.6 | –
118.17 K | 128.8 ± 0.6 | –
118.68 K | – | 138.9 ± 0.6
119.51 K | 129.7 ± 0.6 | –
120 K | 130 ± 0.6 | 139.8 ± 0.6
120.2 K | 130.1 ± 0.6 | –
120.64 K | – | 140.2 ± 0.6
121.54 K | 130.9 ± 0.6 | –
122.22 K | 131.4 ± 0.6 | –
122.62 K | – | 141.5 ± 0.6
123.57 K | 132.2 ± 0.6 | –
124.25 K | 132.7 ± 0.6 | –
124.59 K | – | 142.8 ± 0.6
125.6 K | 133.5 ± 0.6 | –
126.29 K | 133.9 ± 0.6 | –
126.57 K | – | 144.1 ± 0.6
127.64 K | 134.7 ± 0.6 | –
128.33 K | 135.1 ± 0.6 | –
128.55 K | – | 145.4 ± 0.6
129.68 K | 135.9 ± 0.6 | –
130 K | 136.1 ± 0.6 | 146.4 ± 0.7
130.37 K | 136.4 ± 0.6 | –
130.54 K | – | 146.7 ± 0.6
131.72 K | 137.2 ± 0.6 | –
132.41 K | 137.6 ± 0.6 | –
132.53 K | – | 148 ± 0.6
133.76 K | 138.4 ± 0.6 | –
134.46 K | 138.8 ± 0.6 | –
134.52 K | – | 149.3 ± 0.6
135.81 K | 139.6 ± 0.6 | –
136.51 K | 140.1 ± 0.6 | 150.6 ± 0.7
137.87 K | 140.8 ± 0.6 | –
138.51 K | – | 151.8 ± 0.7
138.56 K | 141.3 ± 0.6 | –
139.92 K | 142.1 ± 0.6 | –
140 K | 142.1 ± 0.6 | 152.8 ± 0.7
140.51 K | – | 153.1 ± 0.7
140.62 K | 142.5 ± 0.6 | –
141.98 K | 143.3 ± 0.6 | –
142.51 K | – | 154.4 ± 0.7
142.68 K | 143.7 ± 0.6 | –
144.04 K | 144.5 ± 0.6 | –
144.51 K | – | 155.7 ± 0.7
144.74 K | 144.9 ± 0.6 | –
146.1 K | 145.7 ± 0.6 | –
146.51 K | – | 157 ± 0.7
146.8 K | 146.1 ± 0.6 | –
148.16 K | 146.9 ± 0.6 | –
148.52 K | – | 158.3 ± 0.7
148.86 K | 147.3 ± 0.6 | –
150 K | 147.9 ± 0.7 | 159.3 ± 0.7
150.22 K | 148.1 ± 0.6 | –
150.52 K | – | 159.6 ± 0.7
150.92 K | 148.5 ± 0.6 | –
152.28 K | 149.3 ± 0.6 | –
152.53 K | – | 160.9 ± 0.7
152.98 K | 149.7 ± 0.7 | –
154.35 K | 150.5 ± 0.7 | –
154.54 K | – | 162.2 ± 0.7
155.05 K | 150.8 ± 0.7 | –
156.41 K | 151.6 ± 0.7 | –
156.54 K | – | 163.5 ± 0.7
157.11 K | 152.1 ± 0.7 | –
158.48 K | 152.8 ± 0.7 | –
158.55 K | – | 164.8 ± 0.7
159.18 K | 153.2 ± 0.7 | –
160 K | 153.7 ± 0.7 | 165.7 ± 0.7
160.54 K | 154 ± 0.7 | –
160.56 K | – | 166.1 ± 0.7
161.24 K | 154.4 ± 0.7 | –
162.57 K | – | 167.4 ± 0.7
162.61 K | 155.2 ± 0.7 | –
163.31 K | 155.6 ± 0.7 | –
164.58 K | – | 168.7 ± 0.7
164.68 K | 156.4 ± 0.7 | –
165.38 K | 156.8 ± 0.7 | –
166.59 K | – | 170 ± 0.7
166.74 K | 157.5 ± 0.7 | –
167.44 K | 158 ± 0.7 | –
168.59 K | – | 171.4 ± 0.7

Source: the NIST ThermoML archive (doi:10.1016/j.jct.2014.07.018)
